Measurements published in the supplement of paper PMC5579334.
± gives the standard deviation of the averaged measurements.

Columns and labels:
HS-PSS [1] = experiment: drug sensitivity score (DSS, CellTox-Green cytotoxicity, 72 h) (DSS (dimensionless)); higher = more cytotoxic; extreme values may be limits of the assay
Method in brief: (§1)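 MPNST cell lines and primary human Schwann cells were incubated 72 h at 37 °C in 384-well plates holding five 10-fold compound dilutions. CellTox-Green was added before seeding at a final 1:1000 dilution and reported fluorescence from DNA released by disrupted cells. Signals were scaled to vehicle and positive-control wells, and cultures failing plate quality control were dropped. Drug sensitivity score and relative IC50 come from four-parameter logistic fits, with IC50 censored at the top concentration.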

[2] = system: HSC2 (primary human Schwann cells); experiment: as above
Method in brief: as §1

S1507-2 [3] = experiment: as above
Method in brief: as §1

ST8814 [4] = experiment: as above
Method in brief: as §1

[5] = system: HSC1 (primary human Schwann cells); experiment: as above
Method in brief: as §1

STS26T [6] = experiment: as above
Method in brief: as §1

YST-1 [7] = experiment: % inhibition of CellTiter-Glo viability at highest tested concentration (72 h), relative to DMSO and benzethonium chloride controls; higher = more inhibition
Method in brief: (§2)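 MPNST cell lines and primary human Schwann cells (750–1000 cells per well) went into 384-well plates preprinted with each compound at five concentrations in 10-fold steps. Plates were incubated 72 h at 37 °C, 5% CO2. Viability was read as CellTiter-Glo ATP luminescence, scaled between vehicle and positive-control wells, with duplicates averaged where present. Percent inhibition is at the top concentration; drug sensitivity score and relative IC50 (censored at top concentration) come from four-parameter logistic fits.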

HS-Sch-2 [8] = experiment: as above
Method in brief: as §2

HS-PSS [9] = experiment: as above
Method in brief: as §2

[10] = system: HSC2 (primary human Schwann cells); experiment: as above
Method in brief: as §2

S1507-2 [11] = experiment: as above
Method in brief: as §2

S462 [12] = experiment: as above
Method in brief: as §2

ST8814 [13] = experiment: as above
Method in brief: as §2

[14] = system: HSC1 (primary human Schwann cells); experiment: as above
Method in brief: as §2

STS26T [15] = experiment: as above
Method in brief: as §2

YST-1 [16] = experiment: drug sensitivity score (DSS, CellTiter-Glo viability, 72 h) (DSS (dimensionless)); higher = more sensitive; extreme values may be limits of the assay
Method in brief: as §2

HS-Sch-2 [17] = experiment: as above
Method in brief: as §2

HS-PSS [18] = experiment: as above
Method in brief: as §2

[19] = system: HSC2 (primary human Schwann cells); experiment: as above
Method in brief: as §2

S1507-2 [20] = experiment: as above
Method in brief: as §2

S462 [21] = experiment: as above
Method in brief: as §2

ST8814 [22] = experiment: as above
Method in brief: as §2

[23] = system: HSC1 (primary human Schwann cells); experiment: as above
Method in brief: as §2

STS26T [24] = experiment: as above
Method in brief: as §2

| Structure (SMILES) | drug sensitivity score (HS-PSS [1]) | drug sensitivity score [2] | drug sensitivity score (S1507-2 [3]) | drug sensitivity score (ST8814 [4]) | drug sensitivity score [5] | drug sensitivity score (STS26T [6]) | % inhibition (YST-1 [7]) [%] | % inhibition (HS-Sch-2 [8]) [%] | % inhibition (HS-PSS [9]) [%] | % inhibition [10] [%] | % inhibition (S1507-2 [11]) [%] | % inhibition (S462 [12]) [%] | % inhibition (ST8814 [13]) [%] | % inhibition [14] [%] | % inhibition (STS26T [15]) [%] | drug sensitivity score (YST-1 [16]) | drug sensitivity score (HS-Sch-2 [17]) | drug sensitivity score (HS-PSS [18]) | drug sensitivity score [19] | drug sensitivity score (S1507-2 [20]) | drug sensitivity score (S462 [21]) | drug sensitivity score (ST8814 [22]) | drug sensitivity score [23] | drug sensitivity score (STS26T [24]) |
| --- | --- | --- | --- | --- | --- | --- | --- | --- | --- | --- | --- | --- | --- | --- | --- | --- | --- | --- | --- | --- | --- | --- | --- | --- |
| CNC(=O)c1cc(Oc2ccc(NC(=O)Nc3ccc(Cl)c(C(F)(F)F)c3)cc2)ccn1 [Sorafenib] (max concentration tested 1000 nM) | 0 | 0 | 0 | 0 | 0 | 0 | 11.4 | -11.4 | -0.19 | -21.1 | -6.35 ± 3.5 | -1.24 ± 2.1 | -4.54 | -5.93 | -3.72 | 0 | 0 | 0 | 0 | 0 | 0 | 0 | 0 | 0 |
| CN1CCN(c2nc(C3=C(c4c[nH]c5ccccc45)C(=O)NC3=O)c3ccccc3n2)CC1 [Sotrastaurin] (max concentration tested 10000 nM) | 0 | 0 | 0 | 0 | 0 | 0 | 17.7 | 5.75 | 3.47 | -36.1 | 6.26 ± 6.6 | 11.8 ± 2 | 7.08 | -32.7 | -3.71 | 0.45 | 0 | 0 | 0 | 0.00765 ± 0.011 | 0.0588 ± 0.083 | 0.337 | 0 | 0 |
| O=[N+]([O-])c1ccc2c(c1)S(=O)(=O)C=C2 [Stattic] (max concentration tested 50000 nM) | 12.8 | 9.26 | 5.93 ± 1.3 | 7.96 | 15.6 | 12 | 101 | 100 | 101 | 98.3 | 95.7 ± 1.3 | 96.03 ± 0.43 | 94.6 | 98.5 | 95.6 | 17.4 | 18.6 | 18.7 | 13.9 | 7.88 ± 2.4 | 11.3 ± 3.2 | 14.9 | 16.8 | 13.7 |
| CC(C)n1cnc2c(NCCc3ccc(O)cc3)nc(-c3csc4ccccc34)nc21 [StemRegenin 1] (max concentration tested 10000 nM) | 0 | 0 | 0 | 0 | 0 | 0.0972 | -1.94 | 92.9 | 46.5 | 37 | 19 ± 17 | 15.8 ± 7.6 | 31.3 | 42 | 41.7 | 0 | 4.66 | 2.39 | 2.51 | 0.495 ± 0.7 | 0.493 ± 0.7 | 1.77 | 1.71 | 1.69 |
| CN(N=O)C(=O)N[C@@H]1[C@@H](O)[C@H](O)[C@@H](CO)O[C@@H]1O [Streptozocin] (max concentration tested 10000 nM) | 0 | 0 | 0.108 ± 0.15 | 0 | 0 | 0 | 9.13 | 15.2 | 7.67 | -3.21 | -6.55 ± 6.7 | -6.63 ± 1.8 | 6.38 | -2.68 | -0.477 | 0.32 | 0.37 | 1.36 | 0 | 0 | 0 | 0 | 0 | 0 |
| CCN(CC)CCNC(=O)c1c(C)[nH]c(/C=C2\C(=O)Nc3ccc(F)cc32)c1C [Sunitinib] (max concentration tested 1000 nM) | 0 | 0 | 17.2 ± 24 | 0 | 0 | 0 | -7.4 | 6.65 | 11.8 | -10.9 | 17.7 ± 11 | 16.1 ± 0.67 | 14.7 | -2.06 | 8.24 | 0 | 0 | 0 | 0 | 0.923 ± 1.3 | 0.473 ± 0.41 | 0.732 | 0 | 0 |
| Cn1c(=O)c(F)c(Nc2ccc(I)cc2F)c2c(=O)n(C[C@@H](O)CO)cnc21 [TAK-733] (max concentration tested 1000 nM) | 0 | 0 | 2.13 ± 3 | 5.1 | 0 | 0.198 | 14.2 | 63 | 48.9 | 56.7 | 64.6 ± 1.8 | 76.5 ± 2.8 | 83.7 | 60.4 | 40.6 | 0.48 | 5.75 | 4.36 | 6.21 | 7.362 ± 0.071 | 10.3 ± 0.6 | 9.73 | 6.66 | 6.24 |
| CCS(=O)(=O)c1cccc(-c2cc(C(=O)NC3CCN(C)CC3)c(C)c3[nH]c4ncc(C)cc4c23)c1 [TAK-901] (max concentration tested 1000 nM) | 0 | 11 | 0 | 5.81 | 0.0275 | 6.2 | 76.6 | 70.3 | 57.5 | 65.6 | 23.5 ± 3.2 | 80.6 ± 2.5 | 57.6 | 63.8 | 69.6 | 10.1 | 3.76 | 5.46 | 8.24 | 1.99 ± 0.39 | 8.66 ± 0.25 | 3.64 | 7.19 | 7.82 |
| Cc1cc(C(C)Nc2ccccc2)c2nc(N3CCOCC3)cc(=O)n2c1 (configuration not stated) [TGX-221] (max concentration tested 10000 nM) | 0 | 0 | 0 | 0 | 0 | 0.376 | 26.6 | 12.3 | -2.49 | 6.57 | 28.4 ± 7.1 | 7.98 ± 6.7 | 21.4 | 16.5 | 41.7 | 0.99 | 0.19 | 0 | 0 | 3.32 ± 0.24 | 0.122 ± 0.17 | 1.34 | 0.168 | 4.31 |
| Nc1nc(NC2CC2)cc(-c2cccc(Cl)c2Cl)n1 [TH588] (max concentration tested 25000 nM) | 0 | 4.06 | 5.61 | 7.43 | 4.29 | 9.84 | 79.4 | 87.8 | 35.1 | 67 | 78.2 | 98.2 | 100 | 55 | 102 | 7.77 | 7.91 | 3.03 | 5.92 | 6.86 | 6.18 | 9.42 | 4.07 | 9.6 |
| CC(=O)Nc1ccc(C(=O)Nc2ccccc2N)cc1 [Tacedinaline] (max concentration tested 1000 nM) | 0 | 0 | 0 | 0 | 0 | 0 | 9.24 | -2.17 | 0.39 | 0.407 | 2.24 ± 3.5 | 6.18 ± 0.36 | -2.81 | 6.93 | 4.09 | 0 | 0 | 0 | 0 | 0 | 0 | 0 | 0 | 0 |
| C=CC[C@@H]1/C=C(\C)C[C@H](C)C[C@H](OC)[C@H]2O[C@@](O)(C(=O)C(=O)N3CCCC[C@H]3C(=O)O[C@H](/C(C)=C/[C@@H]3CC[C@@H](O)[C@H](OC)C3)[C@H](C)[C@@H](O)CC1=O)[C@H](C)C[C@@H]2OC [Tacrolimus] (max concentration tested 10000 nM) | 0 | 0 | 0 | 0 | 0 | 0 | 7.06 | -0.54 | 8.62 | 5.26 | 6.29 ± 12 | 1.38 ± 2.8 | 13.4 | 19.9 | 8.77 | 0 | 0 | 0 | 0 | 0.168 ± 0.24 | 0 | 0.177 | 0.469 | 0 |
| COc1cc(Nc2ncc(F)c(Nc3ccc4c(n3)NC(=O)C(C)(C)O4)n2)cc(OC)c1OC [Tamatinib] (max concentration tested 10000 nM) | 0 | 0.0662 | 0.0129 ± 0.018 | 0.113 | 0 | 0.558 | -0.14 | 13.4 | 9.72 | 36.1 | -0.148 ± 3.2 | 4.27 ± 6.2 | 11.9 | 37.9 | 10.2 | 0 | 0.4 | 0 | 3.08 | 0 | 0 | 0.365 | 5.11 | 0.0251 |
